One series has as its target PDE10A (Mus musculus (Mouse), UniProt Q8CA95). Put plainly: PDE selectivity SPA assay, PDE10A. In kind it is biochemical. The conditions noted are these: IC50 against murine PDE10A divided by IC50 against PDE7A. As to the method:
(§1) Phosphodiesterase activity was measured by a scintillation proximity assay (SPA, GE Healthcare: Product Code TRKQ7100) with [^3H]-cAMP as the substrate for PDEs 3A, 4A, 8A, or with [^3H]-cGMP as the substrate for PDEs 1B, 2A, 5A, 9A, 10A and 11A. Purified human PDE1B, PDE2A, PDE3A, PDE4A, PDE5A, PDE8A, PDE9A and PDE11A4 were obtained from BPS Bioscience, San Diego, Calif. Purified murine PDE10A was also obtained from BPS Biosciences. […] Therefore, the results obtained using murine PDE10A are believed to be representative of human PDE10.
(§2) The purified PDE enzymes were each diluted and stored in a solution containing 25 mM Tris-Cl (pH 8.0), 100 mM NaCl, 0.05% Tween 20, 50% glycerol, and 3 mM DTT. PDE assays were carried out in the following assay cocktail (final concentrations): 50 mM Tris-Cl (pH 8.0), 8.3 mM MgCl2, 1.7 mM EGTA, 0.5 mg/ml BSA, 2.5% DMSO and between 0.2 ng and 6 ng of the PDE protein (depending on the enzyme activity) in a final volume of 0.1 mL.
(§3) Reactions were initiated by addition of enzyme, incubated for 20 minutes at 30° C. and then terminated by the addition of 50 μl of SPA beads containing Zn^2+.
(§4) The mixture was shaken, and allowed to settle for 3 hours. Then the production of [^3H]-AMP or [^3H]-GMP from the substrate was quantitated by scintillation counting in a Wallac® plate counter. […]

A short description of series [1]: plasma and brain concentration in mice after intraperitoneal injection (LC/MS/MS). It counts as in vivo, mouse. As to the method:
Adult male C57BL/6J; retired breeders, aged between 7-9 months (Jackson Laboratory, Bar Harbor, Me., USA), singly housed.
Just prior to the harvesting of tissues, mice were anesthetized with avertin. Samples of whole brain or plasma were collected from three animals per time point at 15 minutes, 30 minutes, 60 minutes, 120 minutes, and 240 minutes after injection. Blood samples were collected by retro-orbital bleeding. Plasma was prepared and red cells were removed by centrifugation. The mice were perfused with saline to remove contaminating blood. The brains were removed and rapidly frozen in liquid nitrogen for subsequent analysis. The plasma and brain samples were stored at −80° C. or on dry ice and the concentration of compound was determined by LC/MS/MS analysis as follows:
Whole brain tissue was homogenized using a Mini-Beaddeater-8™ (BioSpec Products, Bartlesville, Okla.). Plasma or homogenized brain samples were precipitated with acetonitrile and filtered in 96-well format using Captiva 0.20 micron filtration plates (Varian Corp, Lake Forest, Calif.). Filtrates were evaporated under nitrogen to dryness at 50° C. and were then reconstituted for LC-MS analysis.
Quantitative measurements for inhibitory compound in plasma and brain samples were obtained using a Thermo Ultra triple quadrupole mass spectrometer (Thermo Fisher Scientific, San Jose, Calif.), utilizing electrospray ionization in the multiple reaction monitoring mode of data acquisition. Sample extracts were injected onto a 2.1×30 mm packed Xterra C18-MS high pressure liquid chromatography (HPLC) column (Waters Corp, Milford, Mass.). The mobile phase eluting the compound from the HPLC column was applied using a Thermo Surveyor MS Plus HPLC quaternary pumping system (Thermo Fisher Scientific, San Jose, Calif.) and a HTC PAL autoinjector (LEAP Technologies, Chapel Hill, N.C.).

For the next series, the target named is PDE1B (Homo sapiens (Human), UniProt Q01064). Put plainly: PDE selectivity SPA assay, PDE1B. The settings on record: IC50 against PDE1B divided by IC50 against PDE7A. In kind it is biochemical. As to the method:
as §1, §2, §3, §4

For the next series, the target named is PDE5A (Homo sapiens (Human), UniProt O76074). The experiment in a line: PDE selectivity SPA assay, PDE5A. The settings on record: IC50 against PDE5A divided by IC50 against PDE7A. In kind it is biochemical. As to the method: as §1, §2, §3, §4
A further series has as its target PDE8A (Homo sapiens (Human), UniProt O60658). The experiment in a line: PDE selectivity SPA assay, PDE8A. In kind it is biochemical. The conditions noted are these: IC50 against PDE8A divided by IC50 against PDE7A.
The next series deals with PDE9A (Homo sapiens (Human), UniProt O76083). Put plainly: PDE selectivity SPA assay, PDE9A. In kind it is biochemical. The settings on record: IC50 against PDE9A divided by IC50 against PDE7A.
PDE9A, sequence (O76083 whole entry): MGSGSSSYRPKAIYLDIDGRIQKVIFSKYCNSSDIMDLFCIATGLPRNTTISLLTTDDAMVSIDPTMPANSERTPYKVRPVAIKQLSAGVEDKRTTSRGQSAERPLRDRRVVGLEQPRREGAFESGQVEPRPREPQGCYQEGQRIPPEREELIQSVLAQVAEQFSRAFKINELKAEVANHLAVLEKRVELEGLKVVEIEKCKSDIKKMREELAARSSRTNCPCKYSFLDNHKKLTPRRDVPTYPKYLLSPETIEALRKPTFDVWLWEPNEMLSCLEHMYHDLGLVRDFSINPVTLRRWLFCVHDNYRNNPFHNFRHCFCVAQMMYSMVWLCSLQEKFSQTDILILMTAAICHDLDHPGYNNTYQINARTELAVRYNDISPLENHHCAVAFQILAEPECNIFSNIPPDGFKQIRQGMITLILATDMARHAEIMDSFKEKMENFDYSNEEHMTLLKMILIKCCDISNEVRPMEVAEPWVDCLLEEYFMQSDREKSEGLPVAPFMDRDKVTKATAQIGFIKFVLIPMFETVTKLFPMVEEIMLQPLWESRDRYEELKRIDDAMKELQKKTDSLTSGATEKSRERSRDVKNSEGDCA
For another series, the target named is PDE4A (Homo sapiens (Human), UniProt P27815). Put plainly: PDE selectivity SPA assay, PDE4A. In kind it is biochemical. The settings on record: IC50 against PDE4A divided by IC50 against PDE7A. As to the method:
as §1, §2, §3, §4

The next series concerns the target PDE7B (Homo sapiens (Human), UniProt Q9NP56). Put plainly: PDE7 phosphodiesterase scintillation proximity assay (SPA), PDE7B. In kind it is biochemical. The settings on record: for Fold Selectivity for PDE7A versus PDE7B: IC50 against PDE7B divided by IC50 against PDE7A; for 7A/7B Ratio: ratio of the PDE7B and PDE7A IC50 values; for selectivity for inhibition of the PDE7B enzyme as compared to the other PDEs: versus PDE1B, 2A, 3A, 4A, 5A, 8A, 9A, 10A, 11A. (In general: Scintillation proximity formats need no separation of bound from free tracer.)

For another series, the target named is PDE2A (Homo sapiens (Human), UniProt O00408). Put plainly: PDE selectivity SPA assay, PDE2A. The conditions noted are these: IC50 against PDE2A divided by IC50 against PDE7A. In kind it is biochemical. As to the method:
as §1, §2, §3, §4

In another series the target is PDE3A (Homo sapiens (Human), UniProt Q14432). The experiment in a line: PDE selectivity SPA assay, PDE3A. In kind it is biochemical. The settings on record: IC50 against PDE3A divided by IC50 against PDE7A.
PDE3A, sequence (Q14432 whole entry): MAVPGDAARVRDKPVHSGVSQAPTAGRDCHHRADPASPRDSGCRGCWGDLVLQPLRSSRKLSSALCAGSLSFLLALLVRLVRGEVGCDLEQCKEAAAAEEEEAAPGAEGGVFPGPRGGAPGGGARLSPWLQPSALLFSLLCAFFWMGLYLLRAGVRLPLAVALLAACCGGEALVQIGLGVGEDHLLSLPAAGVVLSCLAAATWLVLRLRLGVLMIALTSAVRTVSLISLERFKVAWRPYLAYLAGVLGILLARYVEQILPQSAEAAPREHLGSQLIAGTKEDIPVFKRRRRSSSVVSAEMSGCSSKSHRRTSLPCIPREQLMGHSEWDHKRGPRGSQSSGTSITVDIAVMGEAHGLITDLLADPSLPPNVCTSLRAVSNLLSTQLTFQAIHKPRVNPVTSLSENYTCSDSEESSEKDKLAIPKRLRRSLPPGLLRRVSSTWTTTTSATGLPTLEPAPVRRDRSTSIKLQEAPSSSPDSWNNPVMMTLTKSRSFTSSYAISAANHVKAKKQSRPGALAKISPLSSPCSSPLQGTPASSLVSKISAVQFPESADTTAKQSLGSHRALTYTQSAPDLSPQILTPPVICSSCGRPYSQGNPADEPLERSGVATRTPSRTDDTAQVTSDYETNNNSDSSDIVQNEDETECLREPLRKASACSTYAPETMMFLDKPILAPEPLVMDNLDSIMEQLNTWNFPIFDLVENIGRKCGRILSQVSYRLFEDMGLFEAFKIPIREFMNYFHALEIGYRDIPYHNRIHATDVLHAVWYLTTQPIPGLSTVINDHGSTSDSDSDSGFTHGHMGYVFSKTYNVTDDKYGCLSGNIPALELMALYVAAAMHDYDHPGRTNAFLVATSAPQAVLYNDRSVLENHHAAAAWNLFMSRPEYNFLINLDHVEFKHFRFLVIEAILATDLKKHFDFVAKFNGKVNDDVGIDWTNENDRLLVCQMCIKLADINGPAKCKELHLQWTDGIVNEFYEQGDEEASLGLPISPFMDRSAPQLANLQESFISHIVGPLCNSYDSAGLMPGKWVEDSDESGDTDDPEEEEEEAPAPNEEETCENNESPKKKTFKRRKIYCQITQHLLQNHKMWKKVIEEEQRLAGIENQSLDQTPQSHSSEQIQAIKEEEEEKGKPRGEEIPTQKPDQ
Setting [2] is: mouse, 1.0 mg/kg IP, 15 minutes.
[3] abbreviates: mouse, 1.0 mg/kg IP, 30 minutes post injection.

PDE7B, sequence (Q9NP56 107-450 limits assumed): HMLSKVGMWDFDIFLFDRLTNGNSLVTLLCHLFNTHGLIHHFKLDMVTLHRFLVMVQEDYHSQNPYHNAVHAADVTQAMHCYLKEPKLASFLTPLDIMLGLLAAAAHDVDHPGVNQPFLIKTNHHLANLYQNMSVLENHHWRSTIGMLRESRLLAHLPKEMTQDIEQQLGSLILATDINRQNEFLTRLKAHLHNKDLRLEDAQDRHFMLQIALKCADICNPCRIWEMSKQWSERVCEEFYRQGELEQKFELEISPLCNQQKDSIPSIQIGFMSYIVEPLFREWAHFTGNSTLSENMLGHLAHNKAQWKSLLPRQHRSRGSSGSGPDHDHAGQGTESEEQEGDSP
PDE8A, sequence (O60658 whole entry): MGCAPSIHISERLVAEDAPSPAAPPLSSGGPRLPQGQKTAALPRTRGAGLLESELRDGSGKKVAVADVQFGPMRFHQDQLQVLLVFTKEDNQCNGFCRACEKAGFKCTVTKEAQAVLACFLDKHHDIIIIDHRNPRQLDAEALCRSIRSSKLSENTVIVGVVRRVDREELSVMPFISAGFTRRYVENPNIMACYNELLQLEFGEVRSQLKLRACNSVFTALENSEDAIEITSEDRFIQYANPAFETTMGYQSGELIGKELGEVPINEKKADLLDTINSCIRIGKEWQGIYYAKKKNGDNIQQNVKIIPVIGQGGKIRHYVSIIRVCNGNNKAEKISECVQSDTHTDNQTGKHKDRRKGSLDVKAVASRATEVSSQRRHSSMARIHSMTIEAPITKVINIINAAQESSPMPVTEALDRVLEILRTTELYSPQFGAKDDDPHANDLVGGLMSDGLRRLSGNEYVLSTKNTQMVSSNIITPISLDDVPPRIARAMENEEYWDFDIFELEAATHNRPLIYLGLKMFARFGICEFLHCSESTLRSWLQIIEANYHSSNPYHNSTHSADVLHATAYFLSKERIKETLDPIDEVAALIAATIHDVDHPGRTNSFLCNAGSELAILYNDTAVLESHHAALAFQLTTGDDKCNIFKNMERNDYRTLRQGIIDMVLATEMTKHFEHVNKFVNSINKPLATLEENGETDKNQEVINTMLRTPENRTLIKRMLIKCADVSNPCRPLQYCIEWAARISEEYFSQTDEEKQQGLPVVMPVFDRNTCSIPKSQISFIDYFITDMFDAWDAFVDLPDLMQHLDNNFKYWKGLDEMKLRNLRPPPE
PDE2A, sequence (O00408 whole entry): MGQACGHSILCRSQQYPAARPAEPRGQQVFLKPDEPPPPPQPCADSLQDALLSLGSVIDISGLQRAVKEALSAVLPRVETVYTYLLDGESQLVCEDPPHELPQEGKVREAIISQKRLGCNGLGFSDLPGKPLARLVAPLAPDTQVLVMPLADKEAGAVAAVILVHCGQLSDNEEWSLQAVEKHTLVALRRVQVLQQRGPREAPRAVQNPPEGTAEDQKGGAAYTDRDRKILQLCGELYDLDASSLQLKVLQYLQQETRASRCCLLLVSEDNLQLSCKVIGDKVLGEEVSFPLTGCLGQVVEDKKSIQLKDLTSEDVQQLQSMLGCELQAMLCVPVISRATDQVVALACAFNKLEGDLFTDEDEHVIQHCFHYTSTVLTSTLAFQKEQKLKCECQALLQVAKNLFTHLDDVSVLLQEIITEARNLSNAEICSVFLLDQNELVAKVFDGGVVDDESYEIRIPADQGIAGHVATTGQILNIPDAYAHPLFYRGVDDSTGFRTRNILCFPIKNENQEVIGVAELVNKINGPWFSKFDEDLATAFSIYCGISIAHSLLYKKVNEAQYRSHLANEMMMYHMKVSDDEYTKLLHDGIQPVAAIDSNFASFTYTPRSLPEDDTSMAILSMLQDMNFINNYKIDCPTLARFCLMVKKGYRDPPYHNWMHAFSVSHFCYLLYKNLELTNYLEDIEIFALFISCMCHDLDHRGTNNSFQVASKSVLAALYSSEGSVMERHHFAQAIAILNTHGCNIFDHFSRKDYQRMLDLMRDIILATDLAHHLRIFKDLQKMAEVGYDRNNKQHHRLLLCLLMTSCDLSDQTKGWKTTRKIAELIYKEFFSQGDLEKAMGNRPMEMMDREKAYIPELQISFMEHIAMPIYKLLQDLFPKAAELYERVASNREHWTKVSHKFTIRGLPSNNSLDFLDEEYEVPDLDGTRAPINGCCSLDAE
PDE4A, sequence (P27815 whole entry): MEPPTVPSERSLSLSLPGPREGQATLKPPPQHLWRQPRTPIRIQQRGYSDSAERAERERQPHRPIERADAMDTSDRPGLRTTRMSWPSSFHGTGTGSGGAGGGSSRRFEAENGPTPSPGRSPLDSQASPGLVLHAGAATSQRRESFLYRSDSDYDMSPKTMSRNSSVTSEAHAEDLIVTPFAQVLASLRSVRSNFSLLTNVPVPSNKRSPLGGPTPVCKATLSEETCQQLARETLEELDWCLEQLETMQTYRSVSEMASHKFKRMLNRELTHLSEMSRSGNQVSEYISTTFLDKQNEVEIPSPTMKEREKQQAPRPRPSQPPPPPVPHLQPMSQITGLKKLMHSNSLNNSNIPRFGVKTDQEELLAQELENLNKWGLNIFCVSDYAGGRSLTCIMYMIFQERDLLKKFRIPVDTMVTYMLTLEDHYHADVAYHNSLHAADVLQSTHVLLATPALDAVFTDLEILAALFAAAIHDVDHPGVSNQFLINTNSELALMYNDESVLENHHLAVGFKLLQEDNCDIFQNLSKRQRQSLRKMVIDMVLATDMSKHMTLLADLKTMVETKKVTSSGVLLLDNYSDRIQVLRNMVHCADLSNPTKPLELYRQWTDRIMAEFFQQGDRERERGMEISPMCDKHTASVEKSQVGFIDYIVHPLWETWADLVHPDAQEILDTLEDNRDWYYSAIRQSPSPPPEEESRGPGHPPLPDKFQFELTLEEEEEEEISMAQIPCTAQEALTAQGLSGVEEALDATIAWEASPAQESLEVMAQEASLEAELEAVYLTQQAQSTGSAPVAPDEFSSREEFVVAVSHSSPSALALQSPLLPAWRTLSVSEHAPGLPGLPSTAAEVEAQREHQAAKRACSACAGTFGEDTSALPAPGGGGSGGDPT

With `COc1cc(N)ccc1-c1cc2c(c(=O)[nH]1)C(C1CCCCC1)N=[N+]2C` (stereo not drawn) [OM69], at PDE10A, the “Fold Selectivity for PDE7A versus PDE10A” value is 1050 fold. Further, in [1] (setting [2]), the brain tissue concentration was determined as 25 ng/g and the plasma concentration is recorded as 51 ng/g. In addition, in series [1] (setting [3]), the peak brain level is on record as 44 ng/g and the peak plasma level is listed as 59 ng/g. Also, in [1] (mouse, 1.0 mg/kg IP, all time points with levels above the lower limit of quantitation), the “brain to plasma ratios” value is recorded as 45-75%. In addition, in [1] (mouse, 30 minutes after injection of a 1 mg/kg dose), the “brain concentration converted to molar” value came to 124 nM. In addition, in [1] (mouse, IP, AUC brain / AUC plasma, 1.0 mg/kg OM69, 10.0 mg/kg OM056, 30.0 mg/kg OM955 and OM956), the “Ratio of Total Brain Exposure/Total Plasma Exposure” value was 0.78. Moreover, the “expected maximal brain concentration” value in series [1] (mouse, dose of 0.1 mg/kg, assuming linearity of uptake and uniform brain distribution) stood at 12.4 nM. Moreover, the “time to wash out of mice” value in [1] (previously determined from pharmacokinetic studies) is ≤ 12 h. Besides, the “Fold Selectivity for PDE7A versus PDE1B” value at PDE1B is on record as 29,608 fold. For the same compound, on PDE5A, the “Fold Selectivity for PDE7A versus PDE5A” value is 4630 fold. For the same compound, the “Fold Selectivity for PDE7A versus PDE8A” value at PDE8A is on record as >7700 fold. On PDE9A, the “Fold Selectivity for PDE7A versus PDE9A” value is given as >7700 fold. Moreover, the “Fold Selectivity for PDE7A versus PDE4A” value on PDE4A was determined as 6500 fold. Further, on PDE7B, half-maximal inhibition (IC50) was put at 4.8 nM; the “potency of PDE7B inhibition, in words” value was “high potency”; the “Fold Selectivity for PDE7A versus PDE7B” value was 3.7 fold; the “7A/7B Ratio” value is on record as 3.69. Moreover, the “selectivity for inhibition of the PDE7B enzyme as compared to the other PDEs” value at PDE7B was determined as 250 fold. Besides, on PDE2A, the “Fold Selectivity for PDE7A versus PDE2A” value is recorded as 11,100 fold. Also, the “Fold Selectivity for PDE7A versus PDE3A” value at PDE3A was 8170 fold.
On to `O=C1Nc2c(Cl)ccc(OCCO)c2C2(CCCCC2)N1` [OM955], for which the “Fold Selectivity for PDE7A versus PDE10A” value at PDE10A came out at 379 fold. Moreover, in [1] (mouse, at 0.5 mg/kg, analogous calculation), the “maximal brain concentration at dose where efficacy was observed” value was 292 nM. On PDE1B, the “Fold Selectivity for PDE7A versus PDE1B” value amounted to 342 fold. Further, the “Fold Selectivity for PDE7A versus PDE5A” value on PDE5A is given as 355 fold. Moreover, the “Fold Selectivity for PDE7A versus PDE8A” value at PDE8A was >192 fold. In addition, the “Fold Selectivity for PDE7A versus PDE9A” value at PDE9A is on record as >192 fold. The “Fold Selectivity for PDE7A versus PDE4A” value at PDE4A turned out to be 113 fold. Also, on PDE7B, 106 nM corresponded to half-maximal inhibition (IC50); the “potency of PDE7B inhibition, in words” value is reported as “moderate potency”; the “Fold Selectivity for PDE7A versus PDE7B” value came out at 2.0 fold; the “7A/7B Ratio” value stood at 2.05. Further, at PDE7B, the “selectivity for inhibition of the PDE7B enzyme as compared to the other PDEs” value is listed as “greater than 50 fold”. In addition, at PDE2A, the “Fold Selectivity for PDE7A versus PDE2A” value came to 209 fold. Also, the “Fold Selectivity for PDE7A versus PDE3A” value at PDE3A was >192 fold.

Source of the values: patent publication US8637528B2, “Use of PDE7 inhibitors for the treatment of movement disorders” (Omeros Corporation, priority 2007, dated 2014).
